# Test results from ChEMBL document CHEMBL4265997, “Decision Making in Medicinal Chemistry: The Power of Our Intuition” (ACS Med Chem Lett, 2018).
# Molecular target: Estrogen receptor beta (Homo sapiens, UniProt Q92731)
# Test: Antagonist activity at ER-beta (unknown origin)
# Sequence of Estrogen receptor beta (Q92731 whole entry): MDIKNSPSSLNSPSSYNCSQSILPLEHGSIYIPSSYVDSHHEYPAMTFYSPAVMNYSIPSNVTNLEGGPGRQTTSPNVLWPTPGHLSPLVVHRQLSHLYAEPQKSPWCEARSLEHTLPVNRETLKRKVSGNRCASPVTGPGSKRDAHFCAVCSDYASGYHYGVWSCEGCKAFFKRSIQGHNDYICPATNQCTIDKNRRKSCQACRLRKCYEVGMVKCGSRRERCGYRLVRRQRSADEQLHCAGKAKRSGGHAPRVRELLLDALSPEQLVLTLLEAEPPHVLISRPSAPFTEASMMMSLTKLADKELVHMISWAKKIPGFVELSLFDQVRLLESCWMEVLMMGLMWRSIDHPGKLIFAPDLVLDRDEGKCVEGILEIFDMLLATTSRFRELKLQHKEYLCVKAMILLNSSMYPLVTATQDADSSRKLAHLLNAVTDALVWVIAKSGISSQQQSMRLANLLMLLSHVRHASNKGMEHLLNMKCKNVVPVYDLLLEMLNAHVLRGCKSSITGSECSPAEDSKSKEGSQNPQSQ
row,IC50,Structure (SMILES)
1,0.631 nM,CNC(=O)c1ccc2nc(C)c3nnc(-c4cc(OCC(C)C)ccc4Cl)n3c2c1
2,2.51 nM,CNC(=O)c1ccc2nc(C)c3nnc(-c4ccccc4Cl)n3c2c1
